Tested on: patients after acute myocardial infarction
Test: Life quality, Seattle Angina Questionnaire (SAQ), same clinical trial
Format: in vivo, human
From the text: 3508 patients who were in accordance with the diagnostic standards of AMI for 28 days to 2 years and differentiated as Qi deficiency and blood stagnation syndrome by TCM were studied. 0.5 g Chinese medicine composition prepared by the method of EXAMPLE 1 (Coded as QSYQ) was administrated half an hour after meal, 3 times per day.
There were 19 questions in the Seattle angina questionnaire (SAQ), including 5 parts: physical limitation (PL), anginal stability (AS), anginal frequency (AF), treatment satisfaction (TS) and disease perception (DP). After being given necessary explanation by doctors, the questions were answered independently by patients.
They included the overall survival time, angina pectoris score, TCM symptom score and life quality score, where angina pectoris score, TCM symptom score and life quality score were evaluated at randomization, in 1st, 3rd, 6th, 9th, 12th month after treatment and 18th month after follow-up.
All evaluation results of SAQ were described during the period of observation, and Wilcoxon rank sum test was used for inter-group comparison.
The evaluation results in the SAQ were depicted in different observations, and inter-group comparison was tested by Wilcoxon Rank-sum test.

## CC(=O)Oc1ccccc1C(=O)O [Control group, aspirine]
9 months after treatment, PP
  SAQ Question 1-4: Slightly limited, percent of patients: (32.89%)
  SAQ Question 1-5: Mildly limited, number of patients: 226
  SAQ Question 1-5: Mildly limited, percent of patients: (15.75%)
  SAQ Question 1-5: Moderately limited, number of patients: 77
  SAQ Question 1-5: Moderately limited, percent of patients: (5.37%)
  SAQ Question 1-5: Not limited, number of patients: 705
  SAQ Question 1-5: Not limited, percent of patients: (49.13%)
  SAQ Question 1-5: Other reasons, number of patients: 10
  SAQ Question 1-5: Other reasons, percent of patients: (0.70%)
  SAQ Question 1-5: Severely limited, number of patients: 9
  SAQ Question 1-5: Severely limited, percent of patients: (0.63%)
  SAQ Question 1-5: Slightly limited, number of patients: 408
  SAQ Question 1-5: Slightly limited, percent of patients: (28.43%)
  SAQ Question 1-9: Mildly limited, % of cases: (19.70%)
  SAQ Question 1-9: Mildly limited, cases: 275
  SAQ Question 1-9: Moderately limited, % of cases: (20.92%)
  SAQ Question 1-9: Moderately limited, cases: 292
  SAQ Question 1-9: Not limited, % of cases: (4.23%)
  SAQ Question 1-9: Not limited, cases: 59
  SAQ Question 1-9: Other reasons, % of cases: (5.80%)
  SAQ Question 1-9: Other reasons, cases: 81
  SAQ Question 1-9: Severely limited, % of cases: (32.38%)
  SAQ Question 1-9: Severely limited, cases: 452
  SAQ Question 1-9: Slightly limited, % of cases: (16.98%)
  SAQ Question 1-9: Slightly limited, cases: 237
12 months after treatment, FAS
  SAQ 2nd question: 6, % of cases: (0.00%)
  SAQ 2nd question: 6, cases: 0
  SAQ 2nd question: Clearly increased, % of cases: (1.32%)
  SAQ 2nd question: Clearly increased, cases: 23
  SAQ 2nd question: Clearly reduced, % of cases: (27.55%)
  SAQ 2nd question: Clearly reduced, cases: 480
  SAQ 2nd question: Same, % of cases: (37.83%)
  SAQ 2nd question: Same, cases: 659
  SAQ 2nd question: Slightly increased, % of cases: (3.16%)
  SAQ 2nd question: Slightly increased, cases: 55
  SAQ 2nd question: Slightly reduced, % of cases: (30.14%)
  SAQ 2nd question: Slightly reduced, cases: 525
  SAQ 3rd question: 1-2 times per week, % of cases: (30.14%)
  SAQ 3rd question: 1-2 times per week, cases: 525
  SAQ 3rd question: 1-3 times per day, % of cases: (3.16%)
  SAQ 3rd question: 1-3 times per day, cases: 55
  SAQ 3rd question: <1 time per week, % of cases: (27.55%)
  SAQ 3rd question: <1 time per week, cases: 480
  SAQ 3rd question: No onset, % of cases: (0.00%)
  SAQ 3rd question: No onset, cases: 0
  SAQ 3rd question: ≧3 times per week, % of cases: (37.83%)
  SAQ 3rd question: ≧3 times per week, cases: 659
  SAQ 3rd question: ≧4 times per day, % of cases: (1.32%)
  SAQ 3rd question: ≧4 times per day, cases: 23
  SAQ Question 1-3: Mildly limited, number of patients: 54
  SAQ Question 1-3: Mildly limited, percent of patients: (3.10%)
  SAQ Question 1-3: Moderately limited, number of patients: 11
  SAQ Question 1-3: Moderately limited, percent of patients: (0.63%)
  SAQ Question 1-3: Not limited, number of patients: 1471
  SAQ Question 1-3: Not limited, percent of patients: (84.35%)
  SAQ Question 1-3: Other reasons, number of patients: 10
  SAQ Question 1-3: Other reasons, percent of patients: (0.57%)
  SAQ Question 1-3: Severely limited, number of patients: 2
  SAQ Question 1-3: Severely limited, percent of patients: (0.11%)
  SAQ Question 1-3: Slightly limited, number of patients: 196
  SAQ Question 1-3: Slightly limited, percent of patients: (11.24%)
  SAQ Question 1-4: Mildly limited, number of patients: 236
  SAQ Question 1-4: Mildly limited, percent of patients: (13.53%)
  SAQ Question 1-4: Moderately limited, number of patients: 66
  SAQ Question 1-4: Moderately limited, percent of patients: (3.78%)
  SAQ Question 1-4: Not limited, number of patients: 853
  SAQ Question 1-4: Not limited, percent of patients: (48.91%)
  SAQ Question 1-4: Other reasons, number of patients: 11
  SAQ Question 1-4: Other reasons, percent of patients: (0.63%)
  SAQ Question 1-4: Severely limited, number of patients: 13
  SAQ Question 1-4: Severely limited, percent of patients: (0.75%)
  SAQ Question 1-4: Slightly limited, number of patients: 565
  SAQ Question 1-4: Slightly limited, percent of patients: (32.40%)
  SAQ Question 1-5: Mildly limited, number of patients: 260
  SAQ Question 1-5: Mildly limited, percent of patients: (14.92%)
  SAQ Question 1-5: Moderately limited, number of patients: 79
  SAQ Question 1-5: Moderately limited, percent of patients: (4.53%)
